According to article PMC5458547, “Discovery of first-in-class reversible dual small molecule inhibitors against G9a and DNMTs in hematological malignancies” (Nature Communications, 2017):

Assays:
HCT-116 = assay: Cell proliferation assay (MTS); type: cell-based; conditions: Homo sapiens, Colorectal
[1] = Liver microsomal stability; type: in vitro ADME; conditions: human, human liver microsomes; read-out: Liver Microsomal Stability. Estimation T1/2
A375 = assay: Cell proliferation assay (MTS); type: cell-based; conditions: Homo sapiens, A-375; Melanoma
UACC-62 = assay: Cell proliferation assay (MTS); type: cell-based; conditions: Homo sapiens, Melanoma
A498 = assay: Cell proliferation assay (MTS); type: cell-based; conditions: Homo sapiens, Renal
CAKI-2 = assay: Cell proliferation assay (MTS); type: cell-based; conditions: Homo sapiens, Renal
N417 = assay: Cell proliferation assay (MTS); type: cell-based; conditions: Homo sapiens, SCLC
GLP = molecular target: T1, GLP (Homo sapiens, UniProt Q9H9B1); assay: Radioligand binding assay (3H-SAM), Reaction Biology; type: biochemical
T1 construct: purchased BPS Bioscience (contract panel)
T1 sequence (Q9H9B1 1-1298): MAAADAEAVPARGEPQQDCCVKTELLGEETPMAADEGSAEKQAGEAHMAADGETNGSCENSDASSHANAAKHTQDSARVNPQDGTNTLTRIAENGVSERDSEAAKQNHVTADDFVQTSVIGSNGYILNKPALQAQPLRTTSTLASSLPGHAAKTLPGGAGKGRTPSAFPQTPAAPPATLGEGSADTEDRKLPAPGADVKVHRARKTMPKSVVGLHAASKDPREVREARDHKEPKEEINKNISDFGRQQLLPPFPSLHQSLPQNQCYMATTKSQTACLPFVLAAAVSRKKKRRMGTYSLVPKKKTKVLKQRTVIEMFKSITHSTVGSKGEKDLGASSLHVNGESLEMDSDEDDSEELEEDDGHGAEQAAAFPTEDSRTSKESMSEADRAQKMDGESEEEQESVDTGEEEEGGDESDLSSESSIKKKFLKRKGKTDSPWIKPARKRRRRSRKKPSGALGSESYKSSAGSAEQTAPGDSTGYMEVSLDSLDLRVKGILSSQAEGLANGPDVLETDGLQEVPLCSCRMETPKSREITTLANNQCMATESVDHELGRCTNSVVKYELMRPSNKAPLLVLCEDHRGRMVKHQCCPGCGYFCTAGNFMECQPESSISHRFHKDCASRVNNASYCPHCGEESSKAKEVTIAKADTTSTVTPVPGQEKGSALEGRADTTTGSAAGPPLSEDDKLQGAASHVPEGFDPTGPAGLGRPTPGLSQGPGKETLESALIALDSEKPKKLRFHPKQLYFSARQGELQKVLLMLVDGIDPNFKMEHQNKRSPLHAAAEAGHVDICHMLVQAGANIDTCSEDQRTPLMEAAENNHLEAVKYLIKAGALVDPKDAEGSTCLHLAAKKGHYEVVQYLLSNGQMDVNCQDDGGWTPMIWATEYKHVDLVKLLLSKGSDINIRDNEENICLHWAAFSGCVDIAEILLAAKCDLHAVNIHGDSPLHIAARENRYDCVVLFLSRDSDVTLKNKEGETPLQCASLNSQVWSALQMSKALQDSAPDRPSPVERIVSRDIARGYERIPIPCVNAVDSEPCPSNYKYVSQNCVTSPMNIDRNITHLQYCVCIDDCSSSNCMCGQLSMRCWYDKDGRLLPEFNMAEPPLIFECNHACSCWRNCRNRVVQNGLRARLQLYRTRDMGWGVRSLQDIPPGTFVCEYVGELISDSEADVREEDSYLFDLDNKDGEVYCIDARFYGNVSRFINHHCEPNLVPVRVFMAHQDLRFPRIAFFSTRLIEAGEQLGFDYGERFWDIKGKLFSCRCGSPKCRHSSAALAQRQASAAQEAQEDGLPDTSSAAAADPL
Experimental: The radioligand binding assay against G9a, DNMT1 and GLP was performed by Reaction Biology Corporation (http://www.reactionbiology.com).

PRMT1 = molecular target: T2, PRMT1 (Homo sapiens, UniProt Q99873); assay: Epigenetics selectivity panel (BPS Bioscience); type: biochemical
T2 construct: purchased BPS Bioscience (contract panel)

KASUMI-1 = assay: Cell proliferation assay (MTS); type: cell-based; conditions: Homo sapiens, AML, 48 h
1205-LU = assay: Cell proliferation assay (MTS); type: cell-based; conditions: Homo sapiens, Melanoma
MGH-U3 = assay: Cell proliferation assay (MTS); type: cell-based; conditions: Homo sapiens; Bladder
EZH2 = molecular target: T3, EZH2 (Homo sapiens, UniProt Q15910); assay: Epigenetics selectivity panel (BPS Bioscience); type: biochemical
T3 construct: purchased DiscoverX KINOMEscan (kinases); BPS Bioscience (epigenetic targets)

[2] = Cytotoxicity in THLE-2 cells (ATP); type: cell-based; conditions: human; THLE-2, 72 h exposure; read-out: LC50
ATAD2B = molecular target: T4, ATAD2B (Homo sapiens, UniProt Q9ULI0); assay: Epigenetics selectivity panel (BPS Bioscience); type: binding
T4 construct: purchased DiscoverX KINOMEscan (kinases); BPS Bioscience (epigenetic targets)

JMJD2C = molecular target: T5, JMJD2C (Homo sapiens, UniProt Q9H3R0); assay: Epigenetics selectivity panel (BPS Bioscience); type: biochemical
T5 construct: purchased DiscoverX KINOMEscan (kinases); BPS Bioscience (epigenetic targets)

Maximum tolerated dose = conditions: mouse, in vivo, iv
PRMT4 = molecular target: T6, PRMT4 (Homo sapiens, UniProt Q86X55); assay: Epigenetics selectivity panel (BPS Bioscience); type: biochemical
T6 construct: purchased DiscoverX KINOMEscan (kinases); BPS Bioscience (epigenetic targets)

TAF1 = molecular target: T7, TAF1 (Homo sapiens, UniProt P21675); assay: Epigenetics selectivity panel (BPS Bioscience); type: binding
T7 construct: purchased DiscoverX KINOMEscan (kinases); BPS Bioscience (epigenetic targets)

PRMT3 = molecular target: T8, PRMT3 (Homo sapiens, UniProt O60678); assay: Epigenetics selectivity panel (BPS Bioscience); type: biochemical
T8 construct: purchased DiscoverX KINOMEscan (kinases); BPS Bioscience (epigenetic targets)

U87-MG = assay: Cell proliferation assay (MTS); type: cell-based; conditions: Homo sapiens, U-87 MG; Glioblastoma
697 = assay: Cell proliferation assay (MTS); type: cell-based; conditions: Homo sapiens; ALL, 48 h
SET7-9 = molecular target: T9, SET7-9 (Homo sapiens, UniProt Q8WTS6); assay: Epigenetics selectivity panel (BPS Bioscience); type: biochemical
T9 construct: purchased DiscoverX KINOMEscan (kinases); BPS Bioscience (epigenetic targets)

MM1.R = assay: Cell proliferation assay (MTS); type: cell-based; conditions: Homo sapiens, MM.1R
BRD2(BD1+BD2) = molecular target: T10, BRD2(BD1+BD2) (Homo sapiens, UniProt P25440); assay: Epigenetics selectivity panel (BPS Bioscience); type: binding
T10 construct: purchased DiscoverX KINOMEscan (kinases); BPS Bioscience (epigenetic targets)

SK-MEL-147 = assay: Cell proliferation assay (MTS); type: cell-based; conditions: Homo sapiens, Melanoma

T2 sequence (Q99873 whole entry): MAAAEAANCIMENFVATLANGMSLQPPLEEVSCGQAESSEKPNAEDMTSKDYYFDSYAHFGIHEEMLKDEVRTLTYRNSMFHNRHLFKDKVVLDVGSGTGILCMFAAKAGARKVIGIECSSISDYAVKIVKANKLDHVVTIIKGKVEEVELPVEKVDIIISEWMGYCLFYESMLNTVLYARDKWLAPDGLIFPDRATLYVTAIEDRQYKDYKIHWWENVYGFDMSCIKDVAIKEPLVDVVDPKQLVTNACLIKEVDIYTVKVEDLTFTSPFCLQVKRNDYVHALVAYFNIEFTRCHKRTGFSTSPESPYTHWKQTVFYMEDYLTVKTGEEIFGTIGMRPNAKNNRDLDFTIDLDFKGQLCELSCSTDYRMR
T4 sequence (Q9ULI0 whole entry): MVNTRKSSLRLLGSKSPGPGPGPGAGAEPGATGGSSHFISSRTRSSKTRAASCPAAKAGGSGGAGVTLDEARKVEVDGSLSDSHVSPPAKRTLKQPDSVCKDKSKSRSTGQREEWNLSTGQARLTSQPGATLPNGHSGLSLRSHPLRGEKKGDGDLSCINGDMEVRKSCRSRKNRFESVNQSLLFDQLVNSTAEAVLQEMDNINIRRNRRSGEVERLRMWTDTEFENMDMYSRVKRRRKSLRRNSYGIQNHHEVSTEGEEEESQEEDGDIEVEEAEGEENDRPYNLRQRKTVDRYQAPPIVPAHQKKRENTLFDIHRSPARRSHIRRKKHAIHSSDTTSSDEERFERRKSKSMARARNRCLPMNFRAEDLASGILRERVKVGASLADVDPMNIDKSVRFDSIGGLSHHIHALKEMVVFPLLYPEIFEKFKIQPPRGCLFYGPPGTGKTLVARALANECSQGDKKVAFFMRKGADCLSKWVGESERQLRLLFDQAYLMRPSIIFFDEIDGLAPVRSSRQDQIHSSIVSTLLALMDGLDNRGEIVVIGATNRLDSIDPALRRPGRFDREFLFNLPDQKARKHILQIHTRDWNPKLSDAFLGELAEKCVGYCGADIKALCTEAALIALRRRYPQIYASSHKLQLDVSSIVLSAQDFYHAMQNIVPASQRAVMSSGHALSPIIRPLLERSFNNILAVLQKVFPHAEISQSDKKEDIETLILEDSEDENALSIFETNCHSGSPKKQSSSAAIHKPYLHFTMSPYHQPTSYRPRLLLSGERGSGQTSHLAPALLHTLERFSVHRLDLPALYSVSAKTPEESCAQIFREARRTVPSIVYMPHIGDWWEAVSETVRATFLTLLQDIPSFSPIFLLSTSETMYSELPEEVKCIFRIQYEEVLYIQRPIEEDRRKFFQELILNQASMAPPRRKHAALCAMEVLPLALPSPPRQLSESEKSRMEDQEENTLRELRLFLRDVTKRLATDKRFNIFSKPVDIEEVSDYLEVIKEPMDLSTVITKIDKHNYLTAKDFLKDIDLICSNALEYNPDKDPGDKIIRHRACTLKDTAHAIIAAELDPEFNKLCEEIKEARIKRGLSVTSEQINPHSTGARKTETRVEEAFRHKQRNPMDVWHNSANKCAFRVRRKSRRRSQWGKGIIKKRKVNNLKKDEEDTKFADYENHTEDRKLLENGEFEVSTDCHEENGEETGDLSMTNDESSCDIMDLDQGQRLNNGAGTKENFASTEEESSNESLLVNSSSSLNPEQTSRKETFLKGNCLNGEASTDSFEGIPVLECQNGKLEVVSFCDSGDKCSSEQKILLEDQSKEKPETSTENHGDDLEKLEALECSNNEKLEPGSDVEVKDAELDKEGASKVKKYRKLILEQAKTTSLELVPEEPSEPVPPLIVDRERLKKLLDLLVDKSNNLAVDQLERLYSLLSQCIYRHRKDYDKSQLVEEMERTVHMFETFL
T8 sequence (O60678 whole entry): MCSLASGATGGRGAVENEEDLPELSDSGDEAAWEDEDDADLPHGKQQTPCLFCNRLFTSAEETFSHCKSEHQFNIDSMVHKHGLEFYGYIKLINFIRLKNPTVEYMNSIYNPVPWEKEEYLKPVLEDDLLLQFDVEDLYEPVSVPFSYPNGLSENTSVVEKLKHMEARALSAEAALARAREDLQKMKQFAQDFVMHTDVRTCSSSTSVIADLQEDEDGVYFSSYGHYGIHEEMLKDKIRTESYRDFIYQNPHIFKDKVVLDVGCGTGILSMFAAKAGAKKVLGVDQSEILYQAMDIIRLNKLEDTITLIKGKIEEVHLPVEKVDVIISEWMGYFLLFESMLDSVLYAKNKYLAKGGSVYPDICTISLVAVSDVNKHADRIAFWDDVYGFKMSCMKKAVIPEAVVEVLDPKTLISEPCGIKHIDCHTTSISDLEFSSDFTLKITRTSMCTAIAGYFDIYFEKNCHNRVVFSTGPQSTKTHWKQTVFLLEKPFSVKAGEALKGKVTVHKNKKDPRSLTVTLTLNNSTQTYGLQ
T9 sequence (Q8WTS6 whole entry): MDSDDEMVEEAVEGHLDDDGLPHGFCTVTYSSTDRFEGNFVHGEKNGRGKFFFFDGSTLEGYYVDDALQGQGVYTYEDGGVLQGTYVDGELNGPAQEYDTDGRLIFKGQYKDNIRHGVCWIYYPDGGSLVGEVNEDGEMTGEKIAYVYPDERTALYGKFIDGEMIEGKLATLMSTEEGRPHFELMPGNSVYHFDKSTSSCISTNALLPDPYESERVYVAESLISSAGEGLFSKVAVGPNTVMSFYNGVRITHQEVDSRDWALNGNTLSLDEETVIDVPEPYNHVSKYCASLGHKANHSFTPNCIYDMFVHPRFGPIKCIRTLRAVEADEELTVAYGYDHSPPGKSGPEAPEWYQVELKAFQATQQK
T5 sequence (Q9H3R0 whole entry): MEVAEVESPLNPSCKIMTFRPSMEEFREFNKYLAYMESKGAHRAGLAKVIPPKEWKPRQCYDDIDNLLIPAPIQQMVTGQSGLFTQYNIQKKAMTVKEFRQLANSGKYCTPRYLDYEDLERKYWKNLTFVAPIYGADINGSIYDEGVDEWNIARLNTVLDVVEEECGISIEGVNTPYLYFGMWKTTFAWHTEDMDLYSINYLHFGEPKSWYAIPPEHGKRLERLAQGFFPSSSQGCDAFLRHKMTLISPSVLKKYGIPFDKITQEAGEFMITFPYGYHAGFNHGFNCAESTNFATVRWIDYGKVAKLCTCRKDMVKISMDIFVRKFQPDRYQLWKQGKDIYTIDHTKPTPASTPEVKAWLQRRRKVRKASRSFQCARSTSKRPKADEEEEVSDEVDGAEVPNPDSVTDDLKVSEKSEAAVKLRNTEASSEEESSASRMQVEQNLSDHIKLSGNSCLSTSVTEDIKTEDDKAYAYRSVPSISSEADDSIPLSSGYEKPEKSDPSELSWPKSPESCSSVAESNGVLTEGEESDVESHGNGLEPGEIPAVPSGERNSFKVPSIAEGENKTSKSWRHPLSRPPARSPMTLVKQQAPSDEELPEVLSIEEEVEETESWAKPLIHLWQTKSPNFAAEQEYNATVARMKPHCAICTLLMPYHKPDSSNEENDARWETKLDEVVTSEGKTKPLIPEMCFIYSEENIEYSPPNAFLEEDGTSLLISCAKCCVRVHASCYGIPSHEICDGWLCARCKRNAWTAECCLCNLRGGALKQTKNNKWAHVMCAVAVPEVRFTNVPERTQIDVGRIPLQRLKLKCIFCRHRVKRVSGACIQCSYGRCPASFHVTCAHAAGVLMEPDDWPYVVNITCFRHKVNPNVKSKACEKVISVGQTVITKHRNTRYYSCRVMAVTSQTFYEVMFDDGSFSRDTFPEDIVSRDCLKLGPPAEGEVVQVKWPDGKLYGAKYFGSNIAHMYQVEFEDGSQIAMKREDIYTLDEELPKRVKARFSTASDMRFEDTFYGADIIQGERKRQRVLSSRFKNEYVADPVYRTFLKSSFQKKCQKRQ
T10 sequence (P25440 65-459 limits assumed): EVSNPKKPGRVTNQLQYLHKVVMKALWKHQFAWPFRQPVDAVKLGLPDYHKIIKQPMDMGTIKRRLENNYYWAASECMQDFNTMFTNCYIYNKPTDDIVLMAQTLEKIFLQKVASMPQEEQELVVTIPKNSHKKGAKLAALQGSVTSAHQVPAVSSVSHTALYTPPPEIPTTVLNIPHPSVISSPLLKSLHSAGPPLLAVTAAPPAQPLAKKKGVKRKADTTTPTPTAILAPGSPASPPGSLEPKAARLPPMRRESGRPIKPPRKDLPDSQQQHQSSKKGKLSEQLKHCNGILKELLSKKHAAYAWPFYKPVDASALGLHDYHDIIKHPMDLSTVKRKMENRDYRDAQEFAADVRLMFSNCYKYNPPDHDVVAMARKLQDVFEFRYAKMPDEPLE
T6 sequence (Q86X55 whole entry): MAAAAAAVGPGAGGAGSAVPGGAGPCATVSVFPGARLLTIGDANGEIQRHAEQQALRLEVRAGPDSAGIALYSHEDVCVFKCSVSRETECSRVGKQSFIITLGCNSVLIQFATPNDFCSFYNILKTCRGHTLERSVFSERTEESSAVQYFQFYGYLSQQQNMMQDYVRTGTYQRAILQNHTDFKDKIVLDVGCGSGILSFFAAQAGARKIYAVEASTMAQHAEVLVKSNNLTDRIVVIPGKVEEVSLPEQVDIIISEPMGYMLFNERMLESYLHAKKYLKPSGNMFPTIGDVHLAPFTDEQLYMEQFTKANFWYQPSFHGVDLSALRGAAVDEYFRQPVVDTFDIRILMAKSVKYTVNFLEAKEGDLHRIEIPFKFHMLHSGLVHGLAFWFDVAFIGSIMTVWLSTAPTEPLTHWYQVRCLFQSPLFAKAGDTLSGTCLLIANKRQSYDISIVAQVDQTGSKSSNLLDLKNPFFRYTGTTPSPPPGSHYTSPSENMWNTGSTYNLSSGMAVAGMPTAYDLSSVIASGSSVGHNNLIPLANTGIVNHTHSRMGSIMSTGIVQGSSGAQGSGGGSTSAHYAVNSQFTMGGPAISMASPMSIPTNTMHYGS

Compound | GI50 (HCT-116) | half-life at 1 µM [1] | GI50 (A375) | GI50 (UACC-62) | GI50 (A498) | GI50 (CAKI-2) | GI50 (N417) | IC50 (GLP) | inhibition at 10 µM (PRMT1) | GI50 (KASUMI-1) | GI50 (1205-LU) | GI50 (MGH-U3) | inhibition at 10 µM (EZH2) | CC50 at 72 h [2] | inhibition at 10 µM (ATAD2B) | inhibition at 10 µM (JMJD2C) | MTD (Maximum tolerated dose) | inhibition at 10 µM (PRMT4) | inhibition at 10 µM (TAF1) | inhibition at 10 µM (PRMT3) | also measured
COc1cc2c(NC3CCN(C)CC3)cc(-c3ccc(C)o3)nc2cc1OCCCN1CCCC1 [CM-272, 6-methoxy-2-(5-methyl-2-furyl)-N-(1-methyl-4-piperidyl)-7-(3-pyrrolidin-1-ylpropoxy)quinolin-4-amine] | 602 nM | > 2.42 h | 357 nM | 780 nM | 4760 nM | 2920 nM | 1320 nM | 7 nM | 73% | 7140 nM | 121 nM | 456 nM | 1% | 1780 nM | 0% | 12% | 2.5 mg/kg | 5% | 0% | 7% | IC50 (PRMT1; BPS): 4000 nM; GI50 (U87-MG): 294 nM; GI50 697: 913 nM; inhibition at 10 µM (SET7-9): 3%; GI50 (MM1.R): 980 nM; inhibition at 10 µM (BRD2(BD1+BD2)): 0%; GI50 (SK-MEL-147): 422 nM
COc1cc2c(NCC3CCN(C)CC3)cc(-c3ccc(C)o3)nc2cc1OCCCN1CCCC1 [CM-579, 6-methoxy-2-(5-methyl-2-furyl)-N-[(1-methyl-4-piperidyl)methyl]-7-(3-pyrrolidin-1-ylpropoxy)quinolin-4-amine] | 176 nM | 1.48 h | 48 nM | 150 nM | 441 nM | 304 nM | 409 nM | 67 nM | 43% | 5210 nM | 20 nM | 141 nM | 0% | 1300 nM | 0% | 13% | ≤ 1 mg/kg | 6% | 4% | 5% | GI50 (U87-MG): 118 nM; GI50 697: 4280 nM; inhibition at 10 µM (SET7-9): 0%; GI50 (MM1.R): 2110 nM; inhibition at 10 µM (BRD2(BD1+BD2)): 0%; GI50 (SK-MEL-147): 32 nM
